The record followed here is patent publication US20260297031A1, “HYDROXYLAMINE-BASED BCR-ABL1 INHIBITORS FOR TREATMENT OF CANCER” (University of Georgia Research Foundation, Inc., priority 2023, published 2026).

Data set [1] concerns MDCKII-MDR1 cells. The experiment in a line: MDCKII-MDR1 permeability. The method, then: MDCKII-MDR1 Permeability (Independently Performed By: Pharmaron Inc., Ninqbo, CN)
To each well of the Transwell insert and reservoir were added 50 μL and 25 mL of cell culture medium, respectively.
To determine the rate of drug transport in the apical to basolateral direction, 125 μL of the working solution of either test compounds or control compounds was added to the Transwell insert (apical compartment) and a 50 μL sample was immediately transferred from the apical compartment to 200 μL of acetonitrile containing internal standard (100 nM alprazolam, 200 nM caffeine, and 100 nM tolbutamide) in a new 96-well plate as the initial donor sample (A-B). The sample was then vortexed at 1,000 rpm for 10 min. The receiver plate (basolateral compartment) wells were then filled with 235 μL transport buffer. To determine the rate of drug transport in the basolateral to apical direction, 285 μL of the working solution of either test compounds or control compounds was added to the receiver plate (basolateral compartment) wells and a 50 μL of sample was immediately transferred from the basolateral compartment to 200 μL of acetonitrile containing internal standard in a new 96-well plate as the initial donor sample (B-A). The sample was vortexed for 10 min at 1,000 rpm. The Transwell insert (apical compartment) was then filled with 75 μL of transport buffer and the apical to basolateral direction and the basolateral to apical direction were done at the same time. […] After incubation, 50 μL samples from donor sides (apical compartment for Ap→BI flux, and basolateral compartment BI→Ap) and receiver sides (basolateral compartment for Ap→BI flux, and apical compartment for BI→Ap) were transferred to wells of a new 96-well plate, followed by the addition of 200 μL acetonitrile containing internal standard. […] An aliquot of 100 μL of the supernatant was mixed with an appropriate volume of ultra-pure water before LC-MS/MS analysis.
To monitor for monolayer integrity, Lucifer yellow leakage was determined after the 2 h transport period. This began by preparing a stock solution of Lucifer yellow in DMSO and diluted with HBSS (10 mM HEPES, pH 7.4.) to reach a final concentration of 100 μM. To each Transwell insert (apical compartment) was then added 100 μL of the Lucifer yellow solution, followed by filling the wells in the receiver plate (basolateral compartment) with 300 μL of HBSS (10 mM HEPES, pH 7.4).
The efflux ratio was determined using the following equation: […]

Data set [2] in a line: Plasma protein binding by equilibrium dialysis, human plasma. It is filed as in vitro ADME. The settings on record: for % Unbound: human plasma, 360 min, 5 µM. The method, then: Plasma Protein Binding by Equilibrium Dialysis (Independently Performed by Pharmaron Inc., Ninqbo, CN)
Initially, 1 mM solutions of test compounds and the control compound (Ketoconzaole) were prepared in DMSO. After this, dialysis membranes were soaked in ultrapure water for 60 min to separate strips, followed by 20% aq. ethanol for 20 min, and finally in a dialysis buffer for 20 min. […] After this, 597 μL of blank plasma solution followed by 3 μL of the working solutions of either test compounds or control compound were added to a new plastic plate or separate plastic tube and the solutions were vortexed at 1,000 rpm for 2 min. Immediately after this, 50 μL of spiked plasma solution suspension was transferred to a 96-well plate to act as T=0 control. The remaining samples were treated in the same manner, whereby all remaining spiked plasma solutions were added to the incubator for the duration of the study.
Cells were then loaded with 120 μL of the plasma samples and dialyzed against an equal volume of dialysis buffer (PBS). […] At the end of incubation, the lid was removed and 50 μL of post-dialysis samples were removed from both buffer and plasma solution chambers into a separate 96-well plate for analysis. The plasma solutions (50 μL) were then added to the buffer samples along with an equal volume of PBS (50 μL) to the collected plasma solution samples. The plate was shaken at 1,000 rpm for 2 min and 400 μL of acetonitrile containing an appropriate internal standard was added to precipitate protein and release compound. The samples were then vortexed at 1,000 rpm for an additional 10 min followed by centrifugation at 3,220 g for 30 min. Supernatant (250 μL) was then added to a new 96-well plate and centrifuged again at 3,220 g for 30 min and 100 μL of this supernatant was then added to a new 96-well plate for analysis. The samples were analyzed by LC-MS/MS and 100 μL of distilled water was added to each sample prior to analysis.
Concentrations of test compounds and control compound in buffer and plasma solution chambers was determined and percentages of test compounds and control compound bound using the following equations (mean of n=2 replicates): […]
(In general: In equilibrium dialysis only unbound substance equilibrates across the membrane.)

Data set [3] concerns the target T1, BCR-ABL1 Q252H (Homo sapiens, UniProt P00519, Q252H).
T1 construct: BCR (fusion partner, as the printed name BCR-ABL1 says)
The experiment in a line: KinaseProfiler radiometric kinase assay, BCR-ABL1 Q252H. The following applies: [ATP] = 10 μM; mean of n = 2. The data set is classed as biochemical.

The structures appear in SMILES notation.

In the case of `COc1cc(Nc2c(C#N)cnc3cc(OCCON4CCN(C)CC4)c(OC)cc23)c(F)cc1Cl` [Compound 15, 4-((4-chloro-2-fluoro-5-methoxyphenyl)amino)-6-methoxy-7-(2-((4-methylpiperazin-1-yl)oxy)ethoxy)quinoline-3-carbonitrile], the “efflux (P-gp), in words” value in data set [1] (MDCKII-MDR1) was “no further improvement in drug efflux was seen”. In data set [2], the “% Unbound” value came out at 5.58%. Besides, the fraction unbound at 6 h, 5 µM in data set [2] (plasma, human, 5 μM, read-out: fu, plasma %) amounted to 0.056. Further, in data set [3], the IC50 (usually the concentration that gives 50% inhibition) was 2 nM.

Consider `COc1cc2c(Nc3cccc(OC)c3Cl)c(C#N)cnc2cc1OCCON1CCN(C)CC1` [Compound 17, 4-((2-Chloro-3-methoxyphenyl)amino)-6-methoxy-7-(2-((4-methylpiperazin-1-yl)oxy)ethoxy)quinoline-3-carbonitrile], for which, in data set [1] (MDCKII-MDR1), the “efflux (P-gp), in words” value is listed as “greatly reduced efflux ratio”. Moreover, the “fold enhancement in permeability” value in data set [1] (MDCKII-MDR1, relative to bosutinib) is given as 31 -fold. The “% Unbound” value in data set [2] is on record as 7.37%. The same compound registered an IC50 in data set [3] of 37 nM.

Consider `COc1cc(Cl)ccc1Nc1c(C#N)cnc2cc(OCCON3CCN(C)CC3)c(OC)cc12` [Compound 20, 4-((4-Chloro-2-methoxyphenyl)amino)-6-methoxy-7-(2-((4-methylpiperazin-1-yl)oxy)ethoxy)quinoline-3-carbonitrile], for which, in data set [1] (MDCKII-MDR1), the “efflux (P-gp), in words” value is on record as “reduced efflux ratios” and the “permeability in MDCKII-MDR1 cells, in words” value is “markedly improved permeability”. The “% Unbound” value in data set [2] is 7.73%. The compound also came in with an IC50 in data set [3] of 10 nM.
